Test results published in ChEMBL document CHEMBL1201862, “PubChem BioAssay data set” (2004).
Calls of active or inactive are those of the source.

Tests used:
[1] = target: T1, Zinc finger protein mex-5 (Caenorhabditis elegans, UniProt Q9XUB2); assay: MEX-5/TCR-2 RNA interaction inhibitors, dose response, biochemical, C. elegans, fluorescence polarization (AID 1960)
T1 sequence (Q9XUB2 whole entry): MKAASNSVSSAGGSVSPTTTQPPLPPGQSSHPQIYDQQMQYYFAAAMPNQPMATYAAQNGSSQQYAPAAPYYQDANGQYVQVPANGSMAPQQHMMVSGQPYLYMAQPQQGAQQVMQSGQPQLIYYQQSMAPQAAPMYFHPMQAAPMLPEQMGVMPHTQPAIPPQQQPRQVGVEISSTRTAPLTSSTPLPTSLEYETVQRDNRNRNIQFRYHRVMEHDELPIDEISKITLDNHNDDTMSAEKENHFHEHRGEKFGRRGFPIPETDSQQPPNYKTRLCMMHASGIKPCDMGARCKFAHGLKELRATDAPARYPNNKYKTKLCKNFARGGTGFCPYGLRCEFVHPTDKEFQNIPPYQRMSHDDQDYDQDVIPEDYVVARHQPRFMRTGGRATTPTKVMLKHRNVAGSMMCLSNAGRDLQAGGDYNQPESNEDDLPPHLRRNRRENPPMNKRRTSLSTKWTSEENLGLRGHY

Protein RecA = target: T2, Protein RecA (Mycobacterium tuberculosis, UniProt P9WHJ3); assay: RecA Intein Measured in Biochemical System Using Plate Reader - 2047-02_Inhibitor_Dose_DryPowder_Activity. [Related pubchem assays (depositor defined):AID2223]; parameters: species or system Mycobacterium tuberculosis H37Rv
T2 sequence (P9WHJ3 whole entry): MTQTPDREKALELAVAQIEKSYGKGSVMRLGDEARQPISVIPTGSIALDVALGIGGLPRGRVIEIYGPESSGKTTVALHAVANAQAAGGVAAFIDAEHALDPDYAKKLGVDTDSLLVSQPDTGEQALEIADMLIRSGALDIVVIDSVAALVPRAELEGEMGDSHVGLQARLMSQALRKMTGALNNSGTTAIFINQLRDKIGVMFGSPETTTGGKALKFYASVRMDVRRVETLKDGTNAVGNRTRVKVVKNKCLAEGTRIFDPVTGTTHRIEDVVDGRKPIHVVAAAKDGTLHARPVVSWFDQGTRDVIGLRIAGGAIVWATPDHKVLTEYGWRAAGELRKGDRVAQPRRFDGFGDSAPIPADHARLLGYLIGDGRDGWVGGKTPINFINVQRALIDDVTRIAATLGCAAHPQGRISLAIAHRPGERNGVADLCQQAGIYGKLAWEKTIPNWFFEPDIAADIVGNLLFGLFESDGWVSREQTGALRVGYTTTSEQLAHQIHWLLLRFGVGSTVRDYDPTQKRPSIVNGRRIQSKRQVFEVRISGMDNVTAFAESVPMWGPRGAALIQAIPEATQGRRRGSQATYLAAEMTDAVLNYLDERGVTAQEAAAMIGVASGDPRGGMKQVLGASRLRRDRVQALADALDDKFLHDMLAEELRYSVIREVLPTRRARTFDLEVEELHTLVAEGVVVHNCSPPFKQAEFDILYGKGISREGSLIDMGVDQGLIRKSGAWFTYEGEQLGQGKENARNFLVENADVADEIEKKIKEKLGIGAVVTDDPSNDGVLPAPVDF

[2] = target: T3, 1-phosphatidylinositol 4,5-bisphosphate phosphodiesterase gamma-1 (Homo sapiens, UniProt P19174); assay: Counterscreen for inhibitors of phospholipase C isozymes (PLC-B3): Fluorescence-based biochemical high throughput dose response assay to identify inhibitors of phospholipase C isozymes (PLC-gamma1).
T3 sequence (P19174 whole entry): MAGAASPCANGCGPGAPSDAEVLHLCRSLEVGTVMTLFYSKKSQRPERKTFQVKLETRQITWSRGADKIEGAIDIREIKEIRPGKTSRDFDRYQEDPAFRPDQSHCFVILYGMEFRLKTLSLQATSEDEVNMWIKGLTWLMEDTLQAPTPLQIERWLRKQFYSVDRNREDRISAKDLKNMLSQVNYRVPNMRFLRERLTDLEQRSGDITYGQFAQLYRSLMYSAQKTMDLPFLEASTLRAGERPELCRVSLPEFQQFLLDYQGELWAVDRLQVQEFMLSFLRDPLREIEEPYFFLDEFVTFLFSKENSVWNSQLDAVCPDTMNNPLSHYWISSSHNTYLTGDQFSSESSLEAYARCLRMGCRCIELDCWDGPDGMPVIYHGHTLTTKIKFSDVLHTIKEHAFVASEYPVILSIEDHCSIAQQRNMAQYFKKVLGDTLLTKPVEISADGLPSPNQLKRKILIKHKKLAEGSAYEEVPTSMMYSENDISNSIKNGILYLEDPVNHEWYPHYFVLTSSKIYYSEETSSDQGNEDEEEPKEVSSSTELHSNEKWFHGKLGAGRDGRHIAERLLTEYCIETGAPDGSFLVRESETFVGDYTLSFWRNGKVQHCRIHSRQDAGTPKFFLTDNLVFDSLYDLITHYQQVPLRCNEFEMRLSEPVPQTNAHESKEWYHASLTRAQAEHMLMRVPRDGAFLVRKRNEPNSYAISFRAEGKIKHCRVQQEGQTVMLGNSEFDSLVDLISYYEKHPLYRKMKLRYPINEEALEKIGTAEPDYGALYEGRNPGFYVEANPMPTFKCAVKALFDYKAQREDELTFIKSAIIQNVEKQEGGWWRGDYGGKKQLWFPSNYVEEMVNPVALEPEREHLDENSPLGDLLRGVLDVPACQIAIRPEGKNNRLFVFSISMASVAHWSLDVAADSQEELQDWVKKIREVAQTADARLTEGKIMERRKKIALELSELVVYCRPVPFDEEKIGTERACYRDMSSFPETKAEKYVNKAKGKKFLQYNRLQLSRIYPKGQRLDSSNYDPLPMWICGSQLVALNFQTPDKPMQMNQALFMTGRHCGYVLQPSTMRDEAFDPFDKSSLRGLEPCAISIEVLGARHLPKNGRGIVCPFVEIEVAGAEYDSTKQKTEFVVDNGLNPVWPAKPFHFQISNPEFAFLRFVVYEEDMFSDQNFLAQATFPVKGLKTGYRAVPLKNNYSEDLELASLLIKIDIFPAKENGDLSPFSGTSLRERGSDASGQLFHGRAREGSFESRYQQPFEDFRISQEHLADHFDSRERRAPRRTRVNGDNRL

Streptococcus = assay: Group A Streptococcus viability loss, dose response, counter-screen for streptokinase expression inhibitor project, luminescence, BacTiterGlo (AID 1915); type: functional, organism-based;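 note: potency for reduction of bacterial viability or growth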

COc1ccc(NS(=O)(=O)c2ccc3c(c2)[C@H]2C=CC[C@H]2[C@@H](c2ccc(C(=O)O)cc2)N3)cc1
EC50 [1]: 7.88 µM (active)

Cn1nc(-c2ccccn2)nc2c(=O)n(C)c(=O)nc1-2
AC50 (Protein RecA): 0.047 µM (active)
IC50 [2]: > 4.54 µM (active)

CCCCCCCCCCn1c2c(c(=N)c3c1CCC3)CCC2
EC50 (Streptococcus): 8.86 µM (active)
